Source: patent US9073909B2, “[1,3]oxazines” (HOFFMANN-LA ROCHE INC., priority 2011, dated 2015)

Key:
BACE1 [1] = details: baboon, i.v. bolus, PET 0 to 120 minutes
Procedure: The PET experiments were carried out in male baboons (papio anubis). Animals were fasted for 12 hours prior to the PET study. Baboons were initially sedated intramuscularly with Ketamine hydrochloride with restraint dosages of 5-7 mg/kg to achieve a superficial level of anesthesia and then maintained on continuous Propofol intravenous infusion @ 0.3-0.4 mg/kg/h ([…] ® Injectable Emulsion). Circulatory volume was maintained by infusion of isotonic saline. A femoral arterial catheter was inserted for blood sampling. Physiological vital signs including heart rate, ECG, blood pressure and oxygen saturation were continuously monitored throughout the study. The animal was positioned in an ECAT HRRT® brain PET scanner (High Resolution Research Tomograph, CPS Innovations, Inc., Knoxville, Tenn.). The head of the animal was fitted with a thermoplastic mask that was attached to a head holder for reproducible fixation. A 6 min transmission scan with a 1 mCi Cs-137 point source was initially done for attenuation correction. […] The radioactivity of a VOI at time T was calculated as the weighted mean and expressed in mCi/ml. […]
SUV (%)=radioactivity (nCi/ml)/106/(dose (mCi)/body weight (kg)×103)×100, where numbers were used to make the unit for radioactivity equivalent between voxel radioactivity and radioactivity dose (106) and between body weight and voxel volume (103).

BACE1 [2] = molecular target: T1, BACE1 (Rattus norvegicus, UniProt P56819); assay: In vitro autoradiography in rat brain sections; type: binding
T1 construct: from tissue; host or cells: rat brain (sagittal sections in vitro; brain of living rats for the ex vivo study)
Source text: The distribution of [^3H]-5-but-2-ynyloxy-pyrazine-2-carboxylic acid [3-((R)-2-amino-5,5-difluoro-4-methyl-5,6-dihydro-4H-[1,3]oxazin-4-yl)-4-fluoro-phenyl]-amide binding sites as well as the binding specificity for BACE1 was investigated by in vitro autoradiography using male Sprague-Dawley rats. Animals were sacrificed, their brains were rapidly removed and frozen in dry ice powder. Ten μm-thick sagittal sections were cut in a Cryostat microtome and thaw-mounted on adhesion glass slides. Brain sections were first incubated for 10 min in Ringer buffer (NaCl 120 mM, KCl 5 mM, CaCl2 2 mM, MgCl2 1 mM, Tris-HCl 50 mM pH 7.4) at RT and then for 60 min in Ringer buffer containing either 1 nM or 10 nM [^3H]-5-but-2-ynyloxy-pyrazine-2-carboxylic acid [3-((R)-2-amino-5,5-difluoro-4-methyl-5,6-dihydro-4H-[1,3]oxazin-4-yl)-4-fluoro-phenyl]-amide. For the evaluation of non-specific-binding (NSB) of the radiotracer an additional series of sections was incubated with Ringer buffer containing the radiotracer and a reference BACE1 inhibitor ((S)-3-(3,6-dihydro-2H-pyran-4-yl)-7-(2-fluoropyridin-3-yl)-5′H-spiro[chromeno[2,3-c]pyridine-5,5′-oxazol]-2′-amine, CAS Nr 1215869-02-5; example 294 in WO2010030954) at 10 μM. At the end of the incubation, sections were rinsed 3×5 min in ice-cold Ringer buffer and then rapidly dipped once in distilled water at 4° C. Slide-mounted brain sections were dried under a flow of cold air for 3 h and exposed together with [^3H]-microscale to a Fuji Imaging plate for 5 days. The imaging plate was then scanned in a high resolution Fuji BAS reader. The total amount of radiotracer bound to the brain areas of interest (TB) was measured using the MCID image analysis program and expressed as fmol of bound radiotracer/mg of protein. The amount of [^3H]-5-but-2-ynyloxy-pyrazine-2-carboxylic acid [3-((R)-2-amino-5,5-difluoro-4-methyl-5,6-dihydro-4H-[1,3]oxazin-4-yl)-4-fluoro-phenyl]-amide specifically bound to BACE1 (SB) was calculated according to the formula SB=TB−NSB. […]

BACE1 [3] = molecular target: T1, BACE1; assay: Ex vivo autoradiography in rats after i.v. tracer injection
Procedure: The in vivo characteristics of [^3H]-5-but-2-ynyloxy-pyrazine-2-carboxylic acid [3-((R)-2-amino-5,5-difluoro-4-methyl-5,6-dihydro-4H-[1,3]oxazin-4-yl)-4-fluoro-phenyl]-amide for imaging BACE1 were analyzed by an ex vivo autoradiographical approach using young male Sprague-Dawley rats. Animals were intravenously injected with 1 mCi/kg [^3H]-5-but-2-ynyloxy-pyrazine-2-carboxylic acid [3-((R)-2-amino-5,5-difluoro-4-methyl-5,6-dihydro-4H-[1,3]oxazin-4-yl)-4-fluoro-phenyl]-amide corresponding to 37.7 nmol/kg and sacrificed at various time points post injection. To test the specificity of tracer binding in vivo, rats were pre-administered with 10 mg/kg of a reference BACE1 inhibitor ((S)-3-(3,6-dihydro-2H-pyran-4-yl)-7-(2-fluoropyridin-3-yl)-5′H-spiro[chromeno[2,3-c]pyridine-5,5′-oxazol]-2′-amine, CAS Nr 1215869-02-5; example 294 in WO2010030954) (p.o.) 3 h prior to tracer injection. Animals were sacrificed at various time points post injection (5, 15, 30, 60, 120 min p.i.), their brains were rapidly removed and frozen in dry ice powder. Ten μm-thick sagittal sections were cut in a Cryostat microtome and thaw-mounted on adhesion glass slides. Slide-mounted brain sections were dried under a flow of cold air for 3 h and exposed together with [^3H]-microscale to a Fuji Imaging plate for 5 days. The imaging plate was then scanned in a high resolution Fuji BAS reader. The total amount of radiotracer bound to the brain areas of interest (TB) was measured using the MCID image analysis program and expressed as fmol of bound radiotracer/mg of protein. The amount of [^3H]-5-but-2-ynyloxy-pyrazine-2-carboxylic acid [3-((R)-2-amino-5,5-difluoro-4-methyl-5,6-dihydro-4H-[1,3]oxazin-4-yl)-4-fluoro-phenyl]-amide specifically bound to BACE1 (SB) was calculated according to the formula SB=TB−NSB.

BACE1 [4] = molecular target: T2, BACE1 (Homo sapiens, UniProt P56817); assay: Cellular Aβ-lowering assay (BACE1 cell act. Aβ40); type: cell-based; details: HEK293 cells stably expressing human APP695; Aβ40 in supernatant
T2 construct: from tissue; host or cells: human brain tissue slices
Procedure: a) Human HEK293 cells which are stably transfected with a vector expressing a cDNA of the human APP wt gene (APP695) were used to assess the potency of the compounds in a cellular assay. The cells were seeded in 96-well microtiter plates in cell culture medium (Iscove, plus 10% (v/v) fetal bovine serum, glutamine, penicillin/streptomycin) to about 80% confluence and the compounds were added at a 10× concentration in 1/10 volume of medium without FCS containing 8% DMSO (final concentration of DMSO was kept at 0.8% v/v). After 18-20 hrs incubation at 37° C. and 5% CO2 in a humidified incubator the culture supernatant was harvested for the determination of Aβ40 concentrations. […] After stopping the reaction with one volume 1 N H2SO4 the reaction was measured in an ELISA reader at 450 nm wavelength. The concentrations of Aβ in the culture supernatants were calculated from a standard curve obtained with known amounts of pure Aβ peptide. […]
In a Perkin-Elmer White Optiplate-384 (Cat#6007290), 2 μl culture supernatants were combined with 2 μl of a 10× AlphaLISA Anti-hAβAcceptor beads+Biotinylated Antibody Anti-Aβ 1-40 Mix (50 μg/mL/5 nM). […] Light Emission at 615 nm was then recorded using EnVision-Alpha Reader. Levels of Aβ40 in the culture supernatants were calculated as percentage of maximum signal (cells treated with 1% DMSO without inhibitor). […]

T1 sequence (P56819 46-501): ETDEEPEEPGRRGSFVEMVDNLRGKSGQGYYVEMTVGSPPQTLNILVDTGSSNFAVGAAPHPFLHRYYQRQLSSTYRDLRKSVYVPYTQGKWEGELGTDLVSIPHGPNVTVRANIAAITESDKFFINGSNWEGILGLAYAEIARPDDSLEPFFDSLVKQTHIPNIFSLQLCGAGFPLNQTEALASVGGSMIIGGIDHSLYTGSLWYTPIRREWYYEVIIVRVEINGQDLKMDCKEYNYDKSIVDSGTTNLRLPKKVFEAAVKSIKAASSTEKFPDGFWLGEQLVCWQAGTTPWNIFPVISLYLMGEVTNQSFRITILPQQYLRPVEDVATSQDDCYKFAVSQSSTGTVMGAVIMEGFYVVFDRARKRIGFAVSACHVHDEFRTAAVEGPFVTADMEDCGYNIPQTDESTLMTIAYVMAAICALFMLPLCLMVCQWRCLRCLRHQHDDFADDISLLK
T2 sequence (P56817 46-501): as the sequence (P56819 46-501) above, with S82G, I162V, I165L, T180S, A182V, V340I, A393L, H443Q counted along it

C[C@]1(c2cc(NC(=O)c3cnc(OCC#C[11CH3])cn3)ccc2F)N=C(N)OCC1(F)F [Example 3, [^11C]-5-But-2-ynyloxy-pyrazine-2-carboxylic acid [3-((R)-2-amino-5,5-difluoro-4-methyl-5,6-dihydro-4H-[1,3]oxazin-4-yl)-4-fluoro-phenyl]-amide]
brain uptake of radiotracer (BACE1 [1]): rapidly taken up in multiple brain areas

[^3H]-5-But-2-ynyloxy-pyrazine-2-carboxylic acid [3-((R)-2-amino-5,5-difluoro-4-methyl-5,6-dihydro-4H-[1,3]oxazin-4-yl)-4-fluoro-phenyl]-amide [Example 2]
reduction of tracer binding (BACE1 [2]; 1 nM example 2 co-incubated with 10 μM specific BACE1 inhibitor A, rat brain sections): more than 80%
brain regions with highest densities of binding sites (BACE1 [2]; male Sprague-Dawley rat sagittal brain sections): dentate gyms and the CA3 region of the hippocampus, the cerebellum, pallidum and substantia nigra
distribution of binding sites in the rat brain (BACE1 [2]; male Sprague-Dawley rat sagittal brain sections, 1 nM or 10 nM tracer): widespread distribution
in vivo binding after pre-treatment with BACE1 ligand A (specificity) (BACE1 [3]; 10 mg/kg reference BACE1 inhibitor p.o. 3 h prior to tracer injection): clearly reduced
in vivo distribution pattern of binding (regions of highest accumulation) (BACE1 [3]; 1 mCi/kg i.v., ex vivo autoradiography): highest accumulation in the dentate gyms and the CA3 region of the hippocampus, the cerebellum, pallidum and substantia nigra
wash-out kinetics of tracer binding (BACE1 [3]; 5, 15, 30, 60, 120 min post injection): favorable wash-out kinetics

CC#CCOc1cnc(C(=O)Nc2ccc(F)c([C@@]3(C)N=C(N)OCC3(F)F)c2)cn1 [Example 1, 5-But-2-ynyloxy-pyrazine-2-carboxylic acid [3-((R)-2-amino-5,5-difluoro-4-methyl-5,6-dihydro-4H-[1,3]oxazin-4-yl)-4-fluoro-phenyl]-amide]
IC50 (BACE1 [4]): 1.1 nM
